This test relates to selectively-bred alcohol preferring rats. The test can be described thus: Alcohol Preferring Rats In Vivo Model (two-bottle choice). Conditions: for 6 hr Preference (alcohol preference) / 6 hr Ethanol (alcohol intake) / 24 hr Ethanol (alcohol intake) / 24 hr Preference (alcohol preference): mean ± SEM; for 6 hr Ethanol (alcohol intake): 6 h after treatment. Also noted: species or system rat. As for the experimental part: Adult male selectively-bred alcohol preferring rats (which are known in the art to be useful for the study of the effect of test compounds on voluntary alcohol intake) were grouped into three groups: vehicle and Compound #1 (50 and 100 mg/kg, p.o.). Rats were housed individually in wire mesh cages under a constant room temperature of 22±1° C. and 12:12 light-dark cycle (8:00-20:00, dark). The animals were fed Agway Prolab Rat/Mouse/Hamster 3000 formula and water ad libitum.
Alcohol intake was determined using the standard two-bottle choice method. Animals were first given free access to water in a graduated Richter tube for 2 days. Then they were given access to only a solution of 10% (v/v) ethanol for 3 consecutive days. During this period animals became accustomed to drinking from Richter tubes and to the taste and pharmacological effects of alcohol. Thereafter, they were given free access to both water and a solution of 10% alcohol for at least 4 consecutive weeks and throughout the study period. Rats had free access to food. Water and alcohol intake were recorded at 4, 6 and 24 hours after the treatment, whereas food intake was measured at 24 hour. Animals' body weight was measured every day.
After establishment of a stable baseline for alcohol, food, and water intake, rats were administered either vehicle or Compound #1 via oral gavage using a cross-over design with random assignment. To be able to compare the efficacy of these compounds on alcohol intake with an established FDA-approved drug, naltrexone, was included as a positive control. Same rats were given an oral dose of naltrexone (20 mg/kg). The interval between treatments was at least 3 days. Alcohol and water intake were recorded 4, 6 and 24 h after the drug administration and food intake was recorded at 24 hr. A total of 8-10 animals per group were used.
The results below are presented as means±SEM. Alcohol intake (g/kg) was calculated by multiplying the volume of alcohol consumed in ml by 10% and 0.7893 (ethanol density)/body weight in kg. Alcohol preference, expressed as percentage, was calculated as follows: (volume of alcohol consumed in ml/total fluid intake in ml)×100 (Rezvani and Grady, 1994; Rezvani et al., 1997). Statistical differences between drug-treated and control groups were determined by using ANOVA and Tukey Student's t test for multiple comparison.

Regarding `NS(=O)(=O)NCc1csc2ccccc12` [Compound #1, N-(benzo[b]thien-3-ylmethyl)-sulfamide], for the setting “50 mg/kg p.o.”, the “6 hr Preference (alcohol preference)” value is on record as 71 ± 11%, the “6 hr Ethanol (alcohol intake)” value was determined as 1.06 ± 0.25 g/kg, the “24 hr Ethanol (alcohol intake)” value came to 4.48 ± 0.62 g/kg and the “24 hr Preference (alcohol preference)” value worked out at 74 ± 9%. Under “100 mg/kg p.o.”, the “6 hr Preference (alcohol preference)” value turned out to be 67 ± 11%, the “6 hr Ethanol (alcohol intake)” value was 0.79 ± 0.24 g/kg, the “24 hr Ethanol (alcohol intake)” value is 4.08 ± 0.71 g/kg and the “24 hr Preference (alcohol preference)” value is reported as 79 ± 9%. Besides, the “duration of reduction in ethanol consumption compared with naltrexone (in words)” value (100 mg/kg vs naltrexone 20 mg/kg) is “longer lasting than naltrexone”. For the setting “at 6 h (50 and 100 mg/kg; p<0.05) and 24 h (100 mg/kg; p<0.05) post-dosing”, the “effect on ethanol consumption (in words)” value is reported as “decreased ethanol consumption”.
Regarding `O=C1CC[C@@]2(O)[C@H]3Cc4ccc(O)c5c4[C@@]2(CCN3CC2CC2)[C@H]1O5` [Naltrexone, naltrexone, reference compound], where the note is “naltrexone 20 mg/kg oral”, the “6 hr Preference (alcohol preference)” value was found to be 64 ± 12%, the “6 hr Ethanol (alcohol intake)” value turned out to be 0.77 ± 0.24 g/kg, the “24 hr Ethanol (alcohol intake)” value is given as 4.48 ± 0.57 g/kg and the “24 hr Preference (alcohol preference)” value is on record as 76 ± 9%.

These data come from patent US20070191453A1, “USE OF BENZO-HETEROARYL SULFAMIDE DERIVATIVES FOR THE TREATMENT OF SUBSTANCE ABUSE AND ADDICTION” (priority 2006, published 2007).
